Laboratory results taken from patent publication US9107909B2, “Materials and methods to enhance hematopoietic stem cells engraftment procedures” (priority 2008, dated 2015).
Entries after “also recorded” stand apart in the source; their conditions may differ.

Tests used:
SKL cells = assay: HSPC homing to bone marrow in vivo; set-up: species or system mouse; conditions: for increase in in vivo marrow homing efficiency: pulse-exposed grafts or purified SKL cells, 16 hours post-transplant; for SKL cells homed to the marrow: vs vehicle-treated or un-manipulated cells
Protocol: CD45.2 WBM was labeled with CFSE (Molecular Probes, Eugene, Oreg.) washed and treated on ice with either 1 microMolar dmPGE2 or vehicle. After treatment, cells were washed and 2×10^7 cells transplanted into lethally irradiated CD45.2 mice. After 16 hours, femurs and tibias were flushed, and a proportion of mouse marrow Lin^+ cells depleted using MACS microbeads (Miltenyi Biotech), stained with fluorochrome-conjugated-antibodies specific for biotin (lineage), c-kit (K), and Sca-1 (S) and the total number of CFSE^+ WBM (non lineage depleted), KL and SKL cells determined. For congenic homing studies, Lin^neg CD45.1 cells were treated on ice with 1 microMolar dmPGE2, vehicle, or PBS. After incubation, cells were washed and 2×10^6 cells transplanted into CD45.2 mice. After 16 hours, recipient bone marrow was harvested, lineage depleted, stained, and donor CD45.1 SKL cells determined. For competitive, head-to-head homing studies using sorted SKL cells, Lin^neg cells from CD45.2 and CD45.1 mice were FACS sorted, cells treated with either dmPGE2 or vehicle for 2 hours, washed and 3×10^4 CD45.1 (vehicle or dmPGE2 treated) plus 3×10^4 CD45.2 (dmPGE2 or vehicle treated) SKL cells transplanted into lethally irradiated F1 Hybrid mice. To evaluate the role of CXCR4 in homing studies, Lin^neg CD45.2 cells were treated on ice with vehicle or 1 microMolar dmPGE2 plus 10 microMolar AMD3100 (AnorMed Inc., Vancouver, BC, Canada) and 2×10^6 treated cells injected into lethally irradiated CD45.1 mice. Homed SKL cells were analyzed 16 hours post-transplant.
Irrespective of its cause a marrow niche is required for HSPC to self-renew and differentiate and it is very likely that only HSPC homing to these niches can provide long-term repopulation. Referring now to FIG. 3A, in order to assess HSPC homing, CFSE labeled whole bone marrow (WBM) CD45.2 cells were pulsed with dmPGE2 or vehicle for 2 hours on ice, washed and injected IV in lethally irradiated CD45.2 hosts. After 16 hours, total CFSE^+ cells homing to bone marrow as well as the number of homed events within the KL and SKL cell populations were quantified.
Highly purified SKL cells from both CD45.2 and CD45.1 mice were isolated by FACS sorting, treated with dmPGE2 or vehicle, and 3×10^4 vehicle-treated CD45.1 cells plus 3×10^4 dmPGE2-treated CD45.2 cells transplanted into CD45.1/CD45.2 mice. An additional cohort was concurrently transplanted with congenic strain and treatment groups were switched to test for any bias in strain homing. […] Although SKL cells are not a homogenous HSPC population, they are highly enriched for LTRC (Okada et al., 1992; Spangrude and Scollay, 1990).
To evaluate the role of CXCR4 in homing, Lineage^neg CD45.2 cells were treated with vehicle or 1 microMolardmPGE2 plus 10 microMolar AMD3100, 2×10^6 treated cells injected into lethally-irradiated CD45.1 mice and homed SKL cells recovered 16 hours post-transplant and analyzed by FACS. Referring now to FIG. 11, homing efficiency of vehicle and dmPGE2 treated cells to bone marrow in the absence and presence of 10 microMolar AMD3100. Cells were incubated with AMD3100 for 30 minutes prior to the homing assay.

[1] = system: active caspase-3 in SKL cells; assay: Active caspase-3 by FACS in SKL cells; type: cell-based, mouse
Source text: All antibodies were purchased from BD Biosciences unless otherwise noted. For detection and sorting of murine KL and SKL cells, streptavidin conjugated with PE-Cy7 (to stain for biotinylated MACS lineage antibodies (Miltenyi Biotech, Auburn, Calif.)), c-kit-APC, Sca-1-PE or APC-Cy7, CD45. 1-PE and CD45.2-FITC were used. UCB CD34^+ cells were detected using anti-human-CD34-APC. For multilineage analysis, APC-Cy7-Mac-1, PE-Cy7-B-220 and APC-CD3 were used. EP receptors were detected with anti EP1, EP2, EP3 and EP4 rabbit IgG (Cayman Chemicals) and secondary staining with FITC-goat-anti-rabbit IgG (Southern Biotech, Birmingham, Ala.). CXCR4 expression was analyzed using streptavidin-PECy7, c-kit-APC, Sca-1-APC-Cy7, and CXCR4-PE. Apoptosis was measured with FITC-Annexin-V. For Survivin and active caspase-3 detection, cells were permeabilized and fixed using the CytoFix/CytoPerm kit (BD) and stained with anti-active-caspase-3-FITC Flow Kit (BD) or Survivin-PE (R&D Systems).
Expression of EP receptors, CXCR4 and Survivin Replicate Lin^neg cell samples from CD45.2 mice were stained for SKL and each of the EP receptors and surface receptor expression on KL and SKL cells determined by FACS. […] Replicate cells were stained for CD34 and each of the EP receptors and surface expression determined by FACS. […]

SMILES | increase in in vivo marrow homing efficiency (SKL cells) [fold] | SKL cells homed to the marrow (SKL cells; 16 hours) | decrease in active caspase-3 ([1]; 24-72 hours post exposure) | percentage of CFSE+ cells homing to the marrow, total WBM cells (SKL cells; vs vehicle-treated cells, 16 hours) | active caspase-3 in SKL cells ([1]; 24, 48 and 72 hours post-exposure, vs control)
CCCCC[C@H](O)/C=C/[C@H]1[C@H](O)CC(=O)[C@@H]1C/C=C\CCCC(=O)O [PGE2, Prostaglandin E2] | ~2 | higher proportion | 23-59% |  | 
CCCCC(C)(C)[C@H](O)/C=C/[C@H]1[C@H](O)CC(=O)[C@@H]1C/C=C\CCCC(=O)O [dmPGE2, 16,16-dimethyl prostaglandin E2] | 2 | significantly more SKL cells homed; also recorded: significantly greater percentage of SKL cells |  | No difference | decreased active caspase-3
